{
  "source": "PubChem BioAssay AID1996",
  "note": "Non-standard residues stand in square brackets, D forms with d. Residues, ends and D or L forms follow the SMILES beside them. *: point of attachment. Tic = O=C(O)[C@@H]1Cc2ccccc2CN1; NHPr = CCCN*",
  "data": [
    {"conditions": "buffer; pH 7.4; 200.0 µM", "units": {"solubility kinetic": "µg/mL"}, "values": [
      {"smiles": "COC(=O)c1c(C)[nH]c(C(=O)OCC(=O)c2c(N)n(CC(C)C)c(=O)n(C)c2=O)c1C", "solubility kinetic": 14},
      {"smiles": "O=C(O)c1ccc[n+](Cc2ccc([N+](=O)[O-])cc2)c1.[Br-]", "solubility kinetic": "> 50.9"},
      {"smiles": "O=C(CC1CC2CCC1C2)NC1CCCCCCC1", "note": "(centres undefined)", "solubility kinetic": 4.5},
      {"smiles": "COc1cc2[nH]c(C(=O)N3CCN(C)CC3)cc2c(OC)c1OC", "solubility kinetic": 33.8},
      {"smiles": "COc1ccc2nc(NC(=O)c3ccccc3O)sc2c1", "solubility kinetic": 0.7},
      {"smiles": "C=CCNC(=O)CN1c2cccc3cccc(c23)S1(=O)=O", "solubility kinetic": 40.4},
      {"smiles": "Cc1ccc(/C=C/C(=O)NCCc2ccccc2)o1", "solubility kinetic": 33.9},
      {"smiles": "O=C(c1ccccc1Br)N1CCn2c1nc1ccccc12", "solubility kinetic": 26.7},
      {"smiles": "CCNc1nc(SC(C)C(=O)Nc2ccccc2)nc(N(C)C)n1", "note": "(centres undefined)", "solubility kinetic": 3.4},
      {"smiles": "COc1ccccc1-n1c(SCC(=O)O)nc2sc3c(c2c1=O)CCC3", "solubility kinetic": 41.8},
      {"smiles": "COc1cc(NC(=S)NC2CC(C)(C)NC(C)(C)C2)cc(OC)c1", "solubility kinetic": "> 52.7"},
      {"smiles": "COc1ccc(/C=C/C2=CCN(C)CC2)cc1.Cl", "solubility kinetic": "> 39.9"},
      {"smiles": "O=C(NCCOc1cccc2cccnc12)c1cccs1", "solubility kinetic": "> 44.8"},
      {"smiles": "O=[N+]([O-])c1ccc2c(c1)nc1n2CCN(CC2CCCO2)C1", "note": "(centres undefined)", "solubility kinetic": 41.1},
      {"smiles": "Br.CCC1CC(CSC(=N)N)OC1=O", "note": "(centres undefined)", "solubility kinetic": "> 42.5"},
      {"smiles": "Cc1ccc(C(=O)Nc2ccc(OCc3ccccc3)cc2)s1", "solubility kinetic": 3.8},
      {"smiles": "CC(=O)c1c(C)nc(-c2ccccc2)nc1NC(=O)Cc1ccccc1", "solubility kinetic": 11},
      {"smiles": "CC(=O)c1ccc(NC(=O)COC(=O)Cn2cnc3ccccc32)cc1", "solubility kinetic": "> 52.7"},
      {"smiles": "COc1ccc(C(=O)NCCCSc2ccccc2)cc1F", "solubility kinetic": 2.5},
      {"smiles": "S=C(NCc1ccco1)NC1CCCc2ccccc21", "note": "(centres undefined)", "solubility kinetic": 36.4},
      {"smiles": "CC(C)N(C(=O)COC(=O)c1ccc([N+](=O)[O-])cc1)c1ccccc1", "solubility kinetic": 1.1},
      {"smiles": "CN(C(=O)CSc1nc(N)cc(N)n1)C1CCS(=O)(=O)C1", "note": "(centres undefined)", "solubility kinetic": 41},
      {"smiles": "Cc1cc(C)c(C)c(OCCNCc2ccccc2)c1.O=C(O)C(=O)O", "solubility kinetic": "> 53.9"},
      {"smiles": "COc1cc(NC(=O)Nc2cccc(Cl)c2)c(C(=O)O)cc1OC", "solubility kinetic": "> 52.6"},
      {"smiles": "O=C1CCC([N+](=O)[O-])C(c2ccccc2F)N1", "note": "(centres undefined)", "solubility kinetic": "> 35.7"},
      {"smiles": "Cc1[nH]c(=O)c(Cc2ccccc2)c(O)c1C#N", "solubility kinetic": "> 36"},
      {"smiles": "CCOc1ccc(CCNC(=O)c2cnc(C)cn2)cc1OCC", "solubility kinetic": "> 49.4"},
      {"smiles": "COc1cc(C)c(S(=O)(=O)NCc2cccnc2)cc1C", "solubility kinetic": "> 46"},
      {"smiles": "O=C1CC(c2ccccc2Cl)CC(O)=C1C=NCCCO", "note": "(centres undefined)", "solubility kinetic": 44.3},
      {"smiles": "CC1(C)C(C(=O)N2CCN(c3ccc(Cl)cc3)CC2)C1(C)C", "solubility kinetic": 0.5},
      {"smiles": "Cc1ccc(S(=O)(=O)N2CCOC2C(Cl)(Cl)Cl)cc1", "note": "(centres undefined)", "solubility kinetic": 2.6},
      {"smiles": "CCCNC(=O)[C@@H]1CCCN1C(=O)[C@@H]1Cc2ccccc2CN1.Cl", "note": "(H-[Tic]-Pro-NHPr)", "solubility kinetic": "> 52.8"},
      {"smiles": "Cc1cc(C)c(C)c(OCCN2CCOCC2)c1", "solubility kinetic": 27.3},
      {"smiles": "O=C1NCC(COc2cccc3ccccc23)O1", "note": "(centres undefined)", "solubility kinetic": "> 36.5"},
      {"smiles": "CCn1cc(C(=O)O)c(=O)c2cnc(N3CCN(C(=S)Nc4ccccc4)CC3)nc21", "solubility kinetic": 27.2},
      {"smiles": "CN(CC(=O)O)S(=O)(=O)c1ccc2oc3ccccc3c2c1", "solubility kinetic": 40.1},
      {"smiles": "Fc1ccccc1Nc1nc2ccccc2o1", "solubility kinetic": 16.9},
      {"smiles": "CC(C)Oc1ncnc2c1[nH]c1ccccc12", "solubility kinetic": 12.5},
      {"smiles": "CCN1/C(=C2\\OC(=S)N(C)C2=O)C=Cc2ccccc21", "solubility kinetic": 0.3},
      {"smiles": "CNc1nc(-c2ccc3c(c2)CCN3C(=O)CC(C)(C)C)c(C)s1", "solubility kinetic": 17.5},
      {"smiles": "O=C(COC(=O)/C=C/c1ccc(F)cc1)NCc1ccc2c(c1)OCO2", "solubility kinetic": 4.9},
      {"smiles": "Cc1ccc(CNC(=O)Nc2ccccc2)n1C", "solubility kinetic": 31.6},
      {"smiles": "Cc1ccc(S(=O)(=O)N2CCOCC2)cc1C(=O)Nc1nc(-c2ccccn2)cs1", "solubility kinetic": 23.9},
      {"smiles": "NC(=O)Nc1ccc(C(=O)OCC(=O)c2c[nH]c3ccccc23)cc1", "solubility kinetic": 4.2},
      {"smiles": "COCc1cc(C)nc(SCc2ccc(Br)cc2)c1C#N", "solubility kinetic": "< 0.4"},
      {"smiles": "CCc1ccc2oc(C(=O)Nc3cccnc3)c(C)c2c1", "solubility kinetic": 1},
      {"smiles": "C=CCNC(=O)C1CCN(c2cnccn2)CC1", "solubility kinetic": "> 36.9"},
      {"smiles": "COc1ccc(C(C)=O)cc1COC(=O)c1cccnc1Cl", "solubility kinetic": 5.7},
      {"smiles": "O=S1(=O)CCN(CCc2c[nH]c3ccccc23)CC1", "solubility kinetic": 38.2},
      {"smiles": "CC(C)CC(=O)Nc1ccc(C(=O)Nc2cccc(O)c2)cc1", "solubility kinetic": 26.7},
      {"smiles": "O=C1N/C(=C/c2cccs2)C(=O)N1Cc1ccc(F)cc1", "solubility kinetic": "< 0.3"},
      {"smiles": "Cc1ccc(S(=O)(=O)/N=C(/Nc2ccc([N+](=O)[O-])cc2[N+](=O)[O-])c2ccccc2)cc1", "solubility kinetic": 5.9},
      {"smiles": "c1cn(CCCNC2CCCCCCC2)cn1", "solubility kinetic": 23.9},
      {"smiles": "COc1ccc(CNC(=O)CC2Sc3ccccc3NC2=O)cc1", "note": "(centres undefined)", "solubility kinetic": 1.6},
      {"smiles": "O=C(NCCc1ccccc1F)c1ccc2c(c1)OCCO2", "solubility kinetic": "> 45.2"},
      {"smiles": "FC(F)(F)c1cccc(NC(=S)N2CCCCCC2)c1", "solubility kinetic": 22.3},
      {"smiles": "CC(=O)c1ccc(NC(=S)NN2C(C)CCCC2C)cc1", "note": "(centres undefined)", "solubility kinetic": "> 45.8"},
      {"smiles": "C=CCn1c(O)c(C=Nc2ccc(CN3CCCCC3)cc2)c(=O)[nH]c1=S", "solubility kinetic": 51.8},
      {"smiles": "Cc1c(Cl)cccc1NC(=O)CCN1CCOCC1", "solubility kinetic": "> 42.4"}
    ]}
  ]
}
